Laboratory results from patent US8946439B2, “Amide compounds, compositions and uses thereof” (Evotec AG, priority 2008, dated 2015).

Tests used:
hP2X3 = target: T1, hP2X3 (Homo sapiens, UniProt P56373); assay: Calcium uptake assay (P2X antagonist assay), P2X3 homomer; assay type: cell-based; conditions: calcium uptake assay, hP2X3; read-out: IC50 hP2X3 (nM), Ca Influx
T1 construct: expressed in transfected cells; host or cells: e.g. HEK293 or 1321N1
T1 sequence (P56373 1-397): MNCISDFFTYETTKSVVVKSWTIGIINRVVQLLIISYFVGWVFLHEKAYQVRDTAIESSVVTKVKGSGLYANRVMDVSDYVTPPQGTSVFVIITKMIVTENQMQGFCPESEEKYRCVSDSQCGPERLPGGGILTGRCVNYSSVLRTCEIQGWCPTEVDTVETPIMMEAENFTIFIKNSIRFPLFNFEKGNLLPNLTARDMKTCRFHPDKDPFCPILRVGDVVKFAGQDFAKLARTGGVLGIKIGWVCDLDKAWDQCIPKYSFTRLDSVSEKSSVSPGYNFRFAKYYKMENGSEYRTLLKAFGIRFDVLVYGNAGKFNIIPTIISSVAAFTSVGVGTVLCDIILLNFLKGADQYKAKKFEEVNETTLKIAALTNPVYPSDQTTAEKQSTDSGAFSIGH
From the text: (§1) The human P2X2/3 chimera clone is created as described by Neelands et al, and then cloned into an expression vector as above. Receptors are expressed in cells (e.g., HEK293 or 1321N1 (obtained from the ECACC)) via transient transfection using standard lipid mediated transfection, or by creation of stable transfectants for each receptor. For expression of the P2X2/3 heteromeric receptor, the P2X3 expression vector is stably transfected into a cell line already stably expressing P2X2. P2X2/3 heteromer function is isolated using pharmacological methods. Cell lines are maintained in DMEM+5% Glutamax, the appropriate level of selective antibiotic, and 10% heat inactivated FBS.
(§2) Functional activity of compounds at the P2X receptor is determined by measuring their ability to inhibit agonist-induced calcium influx. Compounds are tested for antagonist activity against the P2X2/3 chimera, the P2X3 homomer, or the P2X2/3 heteromer. At the start of each screening day, the agonist EC50 is determined. Compound % inhibition or IC50s are subsequently determined using a predetermined agonist concentration (EC50-90 depending on cell line) as a stimulus. The agonists used are αβMeATP, ATP, or other ATP analogs. Compounds may be tested at concentrations ranging from 1 pM to 10 μM.
(§3) To test for antagonist activity, cells expressing the appropriate receptor are seeded onto 96 or 384 well plates 18-24 hours prior to assay. […] Plates are incubated at 37° C. and then equilibrated at room temperature. Antagonism of agonist-induced calcium influx is measured using a fluorescent imaging plate reader (e.g. FLIPR^TETRA, Molecular Devices, Sunnyvale, Calif.). The assay comprises two stages: a pre-treatment phase followed by a treatment phase. Compounds may be tested as follows: For the pre-treatment phase, 50 μL of 3× concentration of test compound in HBSS is added to cells containing […], of dye loading media to achieve a final concentration of 1× test compound. For the treatment phase, at a set interval after pre-treatment (1-30 minutes), 50 μL of 1× test compound plus 4× agonist solution is added, resulting in a final concentration of 1× compound and 1× agonist. […] Responses are measured as (peak fluorescence after agonist addition) minus (baseline fluorescence prior to treatment). Percent inhibition is calculated as follows:
(§4) [formula] IC50 values are determined by analyzing dose response data in a 4 parameter logistic fit using GraphPad Prizm.

hP2X2/3H = target: T2, hP2X2/3H (Homo sapiens, UniProt P56373+Q9UBL9); assay: Calcium uptake assay (P2X antagonist assay), P2X2/3 heteromer; assay type: cell-based; conditions: calcium uptake assay, hP2X2/3H; read-out: IC50 hP2X2/3H (nM), Ca Influx
T2 construct: expressed in transfected cells; host or cells: e.g. HEK293 or 1321N1
T2 sequence (Q9UBL9 1-471): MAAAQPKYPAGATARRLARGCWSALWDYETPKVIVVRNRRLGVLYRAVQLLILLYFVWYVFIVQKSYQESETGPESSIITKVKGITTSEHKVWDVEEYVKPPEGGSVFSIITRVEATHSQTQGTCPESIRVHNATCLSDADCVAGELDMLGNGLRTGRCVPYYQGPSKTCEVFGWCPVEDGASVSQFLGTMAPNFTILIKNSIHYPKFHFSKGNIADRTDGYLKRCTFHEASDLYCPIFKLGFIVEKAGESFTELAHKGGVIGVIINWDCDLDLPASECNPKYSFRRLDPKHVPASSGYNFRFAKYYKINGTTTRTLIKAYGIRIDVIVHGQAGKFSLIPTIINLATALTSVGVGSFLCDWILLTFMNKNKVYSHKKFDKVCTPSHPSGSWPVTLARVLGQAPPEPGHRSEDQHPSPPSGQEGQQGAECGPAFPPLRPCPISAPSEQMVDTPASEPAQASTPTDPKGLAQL
T2 sequence (P56373 1-397): T1 sequence (P56373 1-397)
From the text: as §1, §2, §3, §4

Cc1ccc(-c2cc(C(=O)N[C@@H](C)CO)cc(C(=O)N(C)CC(C)C)c2)cc1 [Compound 1, (S)—N-(1-Hydroxypropan-2-yl)-N-isobutyl-N,4′-dimethylbiphenyl-3,5-dicarboxamide]
IC50 (hP2X3): < 100 nM
IC50 (hP2X2/3H): 100 to 500 nM

Cc1ccc(-c2cc(C(=O)NCC(C)C)cc(C(=O)N[C@@H](C)CO)c2)cc1 [Compound 2, (S)—N3-(1-Hydroxypropan-2-yl)-N5-isobutyl-4′-methylbiphenyl-3,5-dicarboxamide]
IC50 (hP2X3): 501 to 1000 nM
IC50 (hP2X2/3H): > 1000 nM

Cc1ccc(-c2cc(C(=O)N[C@@H](C)CO)cc(S(C)(=O)=O)c2)cc1 [Compound 3, (S)—N-(1-hydroxypronan-2-yl)-4′-methyl-5-(methylsulfonyl)biphenyl-3-carboxamide]
IC50 (hP2X3): 100 to 500 nM
IC50 (hP2X2/3H): > 1000 nM

Cc1ccc(-c2cc(C(=O)O)cc(C(=O)N[C@@H](C)CO)c2)cc1 [Compound 4]
IC50 (hP2X3): > 1000 nM
IC50 (hP2X2/3H): > 1000 nM

Cc1ccc(-c2cc(C(=O)N[C@@H](C)CO)cc(C(=O)N[C@@H](C)CO)c2)cc1 [Compound 5]
IC50 (hP2X3): > 1000 nM
IC50 (hP2X2/3H): 501 to 1000 nM

CCOC(=O)c1cc(C(=O)N[C@@H](C)CO)cc(-c2ccc(C)cc2)c1 [Compound 6, (S)-Ethyl 5-(1-hydroxypropan-2-ylcarbamoyl)-4′-methylbiphenyl-3-carboxylate]
IC50 (hP2X3): 100 to 500 nM
IC50 (hP2X2/3H): 501 to 1000 nM

COc1ccc([C@@H](CO)NC(=O)c2cc(C(=O)N(C)CC(C)C)cc(-c3ccc(C)cc3)c2)cn1 [Compound 7, (S)—N3-(2-hydroxy-1-(6-methoxypyridin-3-yl)ethyl)-N5-isobutyl-N5,4′-dimethyl-biphenyl-3,5-dicarboxamide]
IC50 (hP2X3): 100 to 500 nM
IC50 (hP2X2/3H): 100 to 500 nM

Cc1ccc(-c2cc(C(=O)NC(C)c3cnccn3)cc(C(=O)N(C)CC(C)C)c2)cc1 (stereo not drawn) [Compound 8, N3-Isobutyl-N3,4′-dimethyl-N-5-(1-(pyrazin-2-yl)ethyl)biphenyl-3,5-dicarboxamide]
IC50 (hP2X3): < 100 nM
IC50 (hP2X2/3H): 100 to 500 nM

Cc1ccc(-c2cc(C(=O)NCc3ccc(Cl)nc3)cc(C(=O)N(C)CC(C)C)c2)cc1 [Compound 9, N3-((6-Chloropyridin-3-yl)methyl)-N5-isobutyl-N5,4′-dimethylbiphenyl-3,5-dicarboxamide]
IC50 (hP2X3): < 100 nM
IC50 (hP2X2/3H): < 100 nM

Cc1ccc(-c2cc(C(=O)N[C@H](C)c3ccc(C(F)(F)F)nc3)cc(C(=O)N(C)CC(C)C)c2)cc1 [Compound 10, (R)—N3-Isobutyl-N3,4′-dimethyl-N5-(1-(6-(trifluoromethyl)pyridin-3-yl)ethyl)biphenyl-3,5-dicarboxamide]
IC50 (hP2X3): 100 to 500 nM
IC50 (hP2X2/3H): 100 to 500 nM

Cc1ccc(-c2cc(C(=O)NCc3ccn4ccnc4c3)cc(C(=O)N(C)CC(C)C)c2)cc1 [Compound 11, N3-(Imidazo[1,2-a]pyridin-7-ylmethyl)-N5-isobutyl-N5,4′-dimethylbiphenyl-3,5-dicarboxamide]
IC50 (hP2X3): < 100 nM
IC50 (hP2X2/3H): 100 to 500 nM

Cc1ccc(-c2cc(C(=O)NCc3cnc(C)nc3)cc(C(=O)N(C)CC(C)C)c2)cc1 [Compound 12, N3-Isobutyl-N3,4′-dimethyl-N5-((2-methylpyrimidin-5-yl)methyl)biphenyl-3,5-dicarboxamide]
IC50 (hP2X3): < 100 nM
IC50 (hP2X2/3H): < 100 nM

Cc1ccc(-c2cc(C(=O)N[C@H](CCO)c3ccc(C)nc3)cc(C(=O)N(C)CC(C)C)c2)cc1 [Compound 13, (R)—N3-(3-Hydroxy-1-(6-methylpyridin-3-yl)propyl)-N5-isobutyl-N5,4′-dimethylbiphenyl-3,5-dicarboxamide]
IC50 (hP2X3): 100 to 500 nM
IC50 (hP2X2/3H): 100 to 500 nM

Cc1ccc(-c2cc(C(=O)N[C@H](C)c3cnc(C)nc3)cc(C(=O)N(C)CC(C)C)c2)cc1 [Compound 14, (R)—N3-Isobutyl-N3,4′-dimethyl-N5-(1-(2-methylpyrimidin-5-yl)ethyl)biphenyl-3,5-dicarboxamide]
IC50 (hP2X3): < 100 nM
IC50 (hP2X2/3H): < 100 nM

CCOC(=O)c1cc(C(=O)NCc2cnc(C)nc2)cc(-c2ccc(C)cc2)c1 [Compound 15, Ethyl 4′-methyl-5-((2-methylpyrimidin-5-yl)methylcarbamoyl)biphenyl-3-carboxylate]
IC50 (hP2X3): < 100 nM
IC50 (hP2X2/3H): < 100 nM

Cc1ccc(-c2cc(C(=O)NCc3cnc(C)nc3)cc(C(=O)NCc3cnc(C)nc3)c2)cc1 [Compound 16, 4′-Methyl-N3,N5-bis((2-methylpyrimidin-5-yl)methyl)biphenyl-3,5-dicarboxamide]
IC50 (hP2X3): 100 to 500 nM
IC50 (hP2X2/3H): 100 to 500 nM

Cc1ccc(-c2cc(C(=O)NCc3cnc(C)nc3)cc(C(=O)N3CC(F)(F)C3)c2)cc1 [Compound 17, 5-(3,3-Difluoroazetidine-1-carbonyl)-4′-methyl-N-((2-methylpyrimidin-5-yl)methyl)biphenyl-3-carboxamide]
IC50 (hP2X3): < 100 nM
IC50 (hP2X2/3H): < 100 nM

Cc1ccc(-c2cc(C(=O)NCc3cnc(C)nc3)cc(C(=O)N3CCCCC3)c2)cc1 [Compound 18, 4′-Methyl-N-((2-methylpyrimidin-5-yl)methyl)-5-(piperidine-1-carbonyl)biphenyl-3-carboxamide]
IC50 (hP2X3): < 100 nM
IC50 (hP2X2/3H): < 100 nM

Cc1ccc(-c2cc(C(=O)NCc3cnc(C)nc3)cc(C(=O)N3CCCCCC3)c2)cc1 [Compound 19, 5-(Azepane-1-carbonyl)-4′-methyl-N-((2-methylpyrimidin-5-yl)methyl)biphenyl-3-carboxamide]
IC50 (hP2X3): < 100 nM
IC50 (hP2X2/3H): < 100 nM

Cc1ccc(-c2cc(C(=O)NCc3cnc(C)nc3)cc(C(=O)N3CCCC3)c2)cc1 [Compound 20, 4′-Methyl-N-((2-methylpyrimidin-5-yl)methyl)-5-(pyrrolidine-1-carbonyl)biphenyl-3-carboxamide]
IC50 (hP2X3): < 100 nM
IC50 (hP2X2/3H): < 100 nM

Cc1ccc(-c2cc(C(=O)O)cc(C(=O)NCc3cnc(C)nc3)c2)cc1 [Compound 21, 4′-Methyl-5-((2-methylpyrimidin-5-yl)methylcarbamoyl)biphenyl-3-carboxylic acid]
IC50 (hP2X3): 100 to 500 nM
IC50 (hP2X2/3H): > 1000 nM

Cc1ccc(-c2cc(C(=O)NCc3cnc(C)nc3)cc(S(C)(=O)=O)c2)cc1 [Compound 22, 4′-Methyl-N-((2-methylpyrimidin-5-yl)methyl)-5-(methylsulfonyl)biphenyl-3-carboxamide]
IC50 (hP2X3): < 100 nM
IC50 (hP2X2/3H): 100 to 500 nM

Cc1ccc(-c2cc(C(=O)NCc3ccc4cccnc4c3)cc(S(C)(=O)=O)c2)cc1 [Compound 23]
IC50 (hP2X3): 100 to 500 nM
IC50 (hP2X2/3H): 100 to 500 nM

Cc1ccc(-c2cc(C(=O)NCc3cnc(C)nc3)cc(C(=O)N3CCOCC3)c2)cc1 [Compound 24]
IC50 (hP2X3): < 100 nM
IC50 (hP2X2/3H): 100 to 500 nM

Cc1ccc(-c2cc(C(=O)NCc3cnc(C)nc3)cc(C(=O)N3CCN(C)CC3)c2)cc1 [Compound 25]
IC50 (hP2X3): < 100 nM
IC50 (hP2X2/3H): 100 to 500 nM

Cc1ccc(-c2cc(C(=O)NC(C)c3ccc(Cl)c(S(C)(=O)=O)c3)cc(S(C)(=O)=O)c2)cc1 (stereo not drawn) [Compound 26]
IC50 (hP2X3): < 100 nM
IC50 (hP2X2/3H): < 100 nM

Cc1ccc(-c2cc(C(=O)NCc3cnc(C)nc3)cc(C(=O)N3CCN(C)C(=O)C3)c2)cc1 [Compound 27]
IC50 (hP2X3): < 100 nM
IC50 (hP2X2/3H): 501 to 1000 nM
